Laboratory results published in patent publication US10167272B2, “Muscarinic agonists” (Heptares Therapeutics Limited, priority 2015, dated 2019).
Read-outs that look alike come from different tables or passages of the source.

Columns and labels:
Assay type in all cases: cell-based
[1] = biological target: T1, human muscarinic M3 receptor (Homo sapiens, UniProt P20309); assay: Alphascreen Surefire phospho-ERK1/2 functional assay, M3; conditions: for EC50: CHO cells stably expressing human M3, read-out: pEC50 M3 (converted); for Emax: CHO
T1 construct: expressed in transfected cells
Method: (§1) ERK1/2 phosphorylation is a downstream consequence of both Gq/11 and Gi/o protein coupled receptor activation, making it highly suitable for the assessment of M1, M3 (Gq/11 coupled) and M2, M4 receptors (Gi/o coupled), rather than using different assay formats for different receptor subtypes. CHO cells stably expressing the human muscarinic M1, M2, M3 or M4 receptor were plated (25K/well) onto 96-well tissue culture plates in MEM-alpha+10% dialysed FBS. Once adhered, cells were serum-starved overnight. Agonist stimulation was performed by the addition of 5 μL agonist to the cells for 5 min (37° C.). Media was removed and 50 μL of lysis buffer added. After 15 min, a 4 μL sample was transferred to 384-well plate and 7 μL of detection mixture added.

[2] = biological target: T2, human muscarinic M4 receptor (Homo sapiens, UniProt P08173); assay: Alphascreen Surefire phospho-ERK1/2 functional assay, M4; conditions: for Emax: CHO
T2 construct: expressed in transfected cells
T2 sequence (P08173 1-479): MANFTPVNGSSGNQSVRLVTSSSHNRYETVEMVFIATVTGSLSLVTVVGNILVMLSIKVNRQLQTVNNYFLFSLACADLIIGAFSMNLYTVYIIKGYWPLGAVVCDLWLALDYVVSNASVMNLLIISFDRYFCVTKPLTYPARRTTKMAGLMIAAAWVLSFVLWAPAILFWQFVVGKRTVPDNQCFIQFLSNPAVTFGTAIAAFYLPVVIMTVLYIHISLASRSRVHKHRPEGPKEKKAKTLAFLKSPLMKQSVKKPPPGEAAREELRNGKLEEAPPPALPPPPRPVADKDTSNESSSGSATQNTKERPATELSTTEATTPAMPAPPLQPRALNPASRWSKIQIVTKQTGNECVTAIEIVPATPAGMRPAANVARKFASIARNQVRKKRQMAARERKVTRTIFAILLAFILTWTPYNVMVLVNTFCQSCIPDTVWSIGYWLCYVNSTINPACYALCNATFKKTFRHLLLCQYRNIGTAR

[3] = biological target: T3, human muscarinic M2 receptor (Homo sapiens, UniProt P08172); assay: Alphascreen Surefire phospho-ERK1/2 functional assay, M2; conditions: for EC50: CHO cells stably expressing human M2, read-out: pEC50 M2 (converted); for Emax: CHO, read-out: % Emax cf. ACh (M2), CHO cells stably expressing human M2, relative to ACh
T3 sequence (P08172 1-466): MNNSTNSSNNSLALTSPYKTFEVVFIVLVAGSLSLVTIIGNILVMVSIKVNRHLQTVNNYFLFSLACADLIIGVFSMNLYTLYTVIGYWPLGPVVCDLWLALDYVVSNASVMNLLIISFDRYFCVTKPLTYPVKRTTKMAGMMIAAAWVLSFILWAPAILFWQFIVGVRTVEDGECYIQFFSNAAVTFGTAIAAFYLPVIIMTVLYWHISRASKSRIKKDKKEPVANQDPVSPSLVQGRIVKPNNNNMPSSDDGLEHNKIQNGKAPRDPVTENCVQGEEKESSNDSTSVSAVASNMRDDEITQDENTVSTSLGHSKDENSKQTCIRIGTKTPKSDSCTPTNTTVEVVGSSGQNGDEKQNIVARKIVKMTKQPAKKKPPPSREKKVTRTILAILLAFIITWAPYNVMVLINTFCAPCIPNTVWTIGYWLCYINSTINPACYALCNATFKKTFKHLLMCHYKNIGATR
Method: as §1

[4] = biological target: T4, human muscarinic M1 receptor (Homo sapiens, UniProt P11229); assay: Alphascreen Surefire phospho-ERK1/2 functional assay, M1; conditions: phospho-ERK1/2; for EC50: read-out: pEC50 M1 (converted); for Emax: CHO, read-out: % Emax cf. ACh (M1), CHO cells stably expressing human M1; for Emax / % Emax cf. ACh (M1): relative to ACh
T4 sequence (P11229 1-460): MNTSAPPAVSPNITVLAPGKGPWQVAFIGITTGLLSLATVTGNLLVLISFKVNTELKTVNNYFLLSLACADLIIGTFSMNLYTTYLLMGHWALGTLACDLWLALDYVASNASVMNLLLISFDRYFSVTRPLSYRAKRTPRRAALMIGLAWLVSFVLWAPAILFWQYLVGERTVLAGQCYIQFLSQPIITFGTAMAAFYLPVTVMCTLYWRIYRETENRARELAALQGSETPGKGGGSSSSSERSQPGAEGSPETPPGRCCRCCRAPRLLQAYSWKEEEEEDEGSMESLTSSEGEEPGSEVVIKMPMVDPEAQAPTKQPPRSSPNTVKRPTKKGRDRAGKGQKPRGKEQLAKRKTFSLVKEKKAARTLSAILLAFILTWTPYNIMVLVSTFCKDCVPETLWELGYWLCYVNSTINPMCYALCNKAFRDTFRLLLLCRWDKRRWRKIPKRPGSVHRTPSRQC
Method: as §1

[5] = read-out: % Emax cf. ACh (M3), CHO cells stably expressing human M3, phospho-ERK1/2, relative to ACh
[6] = CHO cells stably expressing human M4, phospho-ERK1/2, read-out: pEC50 M4 (converted)
[7] = read-out: % Emax cf. ACh (M4), CHO cells stably expressing human M4, phospho-ERK1/2, relative to ACh
[8] = CHO cells stably expressing human M1
[9] = CHO cells stably expressing human M4, phospho-ERK1/2, relative to ACh

T1 sequence (P20309 whole entry): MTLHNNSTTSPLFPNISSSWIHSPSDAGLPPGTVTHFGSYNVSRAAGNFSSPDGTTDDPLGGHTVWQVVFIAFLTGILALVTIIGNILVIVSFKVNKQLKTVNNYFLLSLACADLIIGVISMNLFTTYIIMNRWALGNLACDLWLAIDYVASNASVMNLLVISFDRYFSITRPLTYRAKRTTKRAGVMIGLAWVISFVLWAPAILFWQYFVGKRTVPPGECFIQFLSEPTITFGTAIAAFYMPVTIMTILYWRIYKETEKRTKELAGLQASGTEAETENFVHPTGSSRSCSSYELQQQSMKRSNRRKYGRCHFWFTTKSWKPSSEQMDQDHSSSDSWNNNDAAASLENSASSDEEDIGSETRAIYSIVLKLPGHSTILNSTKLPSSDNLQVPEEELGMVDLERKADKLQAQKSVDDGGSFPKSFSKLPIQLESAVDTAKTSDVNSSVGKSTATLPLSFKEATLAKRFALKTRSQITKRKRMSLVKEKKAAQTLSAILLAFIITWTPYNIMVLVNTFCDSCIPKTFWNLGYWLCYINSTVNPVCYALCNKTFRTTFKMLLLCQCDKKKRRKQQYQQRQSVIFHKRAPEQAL

| SMILES | EC50 [2, 6] [nM] | Emax [2, 7] [%] | EC50 [4, 8] [nM] | Emax [4] [%] | other results |
| --- | --- | --- | --- | --- | --- |
| CCOC(=O)N1CCC2(CC(N3CCC(N(CC(F)(F)F)C(=O)OC)CC3)C2)C1 (single isomer, unassigned) [2-42 Isomer 2] | 100 | 112 | 1580 | 120 | EC50 ([1]; phospho-ERK1/2): > 20 µM; Emax [1, 5]: 39%; EC50 [3]: > 20 µM; Emax [3]: 21% |
| CCOC(=O)N1CCC2(CC(N3CCC(N(CCF)Cc4cnco4)CC3)C2)C1 (single isomer, unassigned) [2-61 Isomer 2] | – | 101 | > 20000 | 21 | EC50 ([1]; phospho-ERK1/2): > 20 µM; Emax [1, 5]: 65%; EC50 ([2]; pEC50 M4): 39.8 nM; EC50 [3]: > 20 µM; Emax [3]: 52% |
| CCOC(=O)N1CCC2(CC(N3CCC(N(CC(C)C)C(C)=O)CC3)C2)C1 (single isomer, unassigned) [2-19 Isomer 2] | 63.1 | – | 100 | – | EC50 ([1]; phospho-ERK1/2): > 20 µM; Emax [1, 5]: 58%; % Emax cf. ACh (M4) [2, 9]: 118%; EC50 [3]: > 20 µM; Emax [3]: 31%; % Emax cf. ACh (M1) [4, 8]: 115% |
| CC(=O)OCC[N+](C)(C)C [ACh, acetylcholine, reference compound] | – | – | – | – | Emax ([1]; read-out: % Emax cf. ACh (M3)): 115%; Emax ([2]; read-out: % Emax cf. ACh (M4)): 110% |
| CCOC(=O)N1CCC2(CC(N3CCC(N(Cc4ccccc4)CC(F)(F)F)CC3)C2)C1 (single isomer, unassigned) [2-59 Isomer 2] | 79.4 | 52 | > 20000 | 9 | EC50 ([1]; phospho-ERK1/2): > 20 µM; Emax [1, 5]: 14%; EC50 [3]: > 20 µM; Emax [3]: 9% |
| CCOC(=O)N1CCC2(CC(N3CCC(N(Cc4cnco4)C(C)=O)CC3)C2)C1 (single isomer, unassigned) [2-36 Isomer 2] | 631 | 71 | 2510 | 45 | – |
| CCOC(=O)N1CCC2(CC(N3CCC(C(C)n4cccn4)CC3)C2)C1 (single isomer, unassigned) [2-65 Isomer 1a] | > 20000 | – | 7940 | 45 | % Emax cf. ACh (M4) [2, 9]: 14% |
| CCOC(=O)N1CCC2(CC(N3CCC(N(CC4(C)COC4)C(C)=O)CC3)C2)C1 (single isomer, unassigned) [2-23 Isomer 2] | 631 | 65 | 1260 | 43 | – |
| CCOC(=O)N1CCC2(CC(N3CCC(CN(C(C)=O)C4CC4)CC3)C2)C1 (single isomer, unassigned) [2-12 Isomer 2] | – | – | – | – | pEC50 M4 ([2]; CHO cells stably expressing human M4, phospho-ERK1/2): 6.7; % Emax cf. ACh (M4) [2, 9]: 41%; pEC50 M1 [4, 8]: < 4.7; % Emax cf. ACh (M1) [4, 8]: 6% |
| CCOC(=O)N1CCC2(CC(N3CCC(N(Cc4ncco4)C(C)=O)CC3)C2)C1 (single isomer, unassigned) [2-37 Isomer 2] | 631 | 55 | 1260 | 26 | – |
| CCOC(=O)N1CCC2(CC(N3CCC(N(CC(C)(C)F)C(C)=O)CC3)C2)C1 (single isomer, unassigned) [2-26 Isomer 2] | 63.1 | – | 398 | – | % Emax cf. ACh (M4) [2, 9]: 114%; % Emax cf. ACh (M1) [4, 8]: 109% |
| CCOC(=O)N1CCC2(CC(N3CCC(N(CC)C(=O)N(C)C)CC3)C2)C1 (single isomer, unassigned) [Example 2-44 Isomer 2] | 398 | 80 | 2510 | 55 | – |
| CCOC(=O)N1CCC2(CC(N3CCC(N(CC(C)(F)F)C(C)=O)CC3)C2)C1 (single isomer, unassigned) [2-27 Isomer 2] | 79.4 | 105 | 631 | 108 | – |

Second part, led by results:

| EC50 [2, 6] [nM] | Emax [2, 7] [%] | EC50 [4, 8] [nM] | Emax [4] [%] | SMILES | other results |
| --- | --- | --- | --- | --- | --- |
| 63.1 | 90 | 398 | 113 | CCOC(=O)N1CCC2(CC(N3CCC(N(C(=O)OC)C4COC4)CC3)C2)C1 (single isomer, unassigned) [2-47 Isomer 2] | EC50 ([1]; phospho-ERK1/2): 1.26 µM; Emax [1, 5]: 63%; EC50 [3]: 0.501 µM; Emax [3]: 29% |
| 158 | – | 63.1 | – | CCOC(=O)N1CCC2(CC(N3CCC(N(CC4(C)CCC4)C(C)=O)CC3)C2)C1 (single isomer, unassigned) [Example 2-21 Isomer 2] | EC50 ([1]; phospho-ERK1/2): > 20 µM; Emax [1, 5]: 22%; EC50 [3]: > 20 µM; Emax [3]: 18%; % Emax cf. ACh (M1) ([4]; CHO cells stably expressing human M1, listed as 2-21 isomer 2): 89% |
| 100 | 92 | > 20000 | 14 | CCOC(=O)N1CCC2(CC(N3CCC(N(CC(=O)OC)C4CC4)CC3)C2)C1 (single isomer, unassigned) [2-9 Isomer 2] | EC50 ([1]; phospho-ERK1/2): > 20 µM; Emax [1, 5]: 5%; EC50 [3]: > 20 µM; Emax [3]: 6% |
| 1260 | 87 | > 20000 | – | CCN(C(C)=O)C1CCN(C2CC3(CCN(C(=O)OC)C3)C2)CC1 (single isomer, unassigned) [2-17 Isomer 1] | % Emax cf. ACh (M1) [4, 8]: 27% |
| 200 | 95 | 501 | 117 | COC(=O)N1CCC2(CC(N3CCC(N(C(C)=O)C4CCC4)CC3)C2)C1 (single isomer, unassigned) [2-15 Isomer 2] | – |
| 39.8 | – | 398 | – | CCOC(=O)N1CCC2(CC(N3CCC(N(CC4(O)CCC4)C(C)=O)CC3)C2)C1 (single isomer, unassigned) [2-31 Isomer 2] | % Emax cf. ACh (M4) [2, 9]: 95%; % Emax cf. ACh (M1) [4, 8]: 78% |
| 316 | 77 | 2510 | 72 | CCOC(=O)N1CC2(CC(N3CCC(N(C(C)=O)C4CC4)CC3)C2)C1 [Example 1-1] | – |
| 200 | – | 1260 | – | CCN(C(C)=O)C1CCN(C2CC3(CCN(C(=O)OC)C3)C2)CC1 (single isomer, unassigned) [2-17 Isomer 2] | % Emax cf. ACh (M4) [2, 9]: 92%; % Emax cf. ACh (M1) [4, 8]: 80% |
| 79.4 | 139 | 316 | 132 | CCOC(=O)N1CCC2(CC(N3CCC(N(C(C)=O)C4(C)CCC4)CC3)C2)C1 (single isomer, unassigned) [2-22 Isomer 2] | – |
| 1000 | – | > 20000 | – | CCOC(=O)N1CCC2(CC(N3CCC(N(CC4CC4)C(C)=O)CC3)C2)C1 (single isomer, unassigned) [2-20 Isomer 1] | % Emax cf. ACh (M4) [2, 9]: 36%; % Emax cf. ACh (M1) [4, 8]: 17% |
| 251 | 80 | 158 | 124 | CCOC(=O)N1CCC2(CC(N3CCC(N(C(C)=O)C4CC(F)(F)C4)CC3)C2)C1 (single isomer, unassigned) [2-28 Isomer 2] | – |
